Experimental data taken from publication PMC3688948, “Distinctive G Protein-Dependent Signaling by Protease-Activated Receptor 2 (PAR2) in Smooth Muscle: Feedback Inhibition of RhoA by cAMP-Independent PKA” (PLoS ONE, 2013).
Read-outs that look alike come from different tables or passages of the source. Peptide text beside a SMILES is read from it. * marks the point of attachment. Myristoyl = CCCCCCCCCCCCCC(=O)*; Cbz = O=C(OCc1ccccc1)*

What was measured:
[1] = tested on: dispersed gastric smooth muscle cells; conditions: for contraction (decrease in cell length), comparator agonists: other contractile agonists, concentration not given; for effect of inhibitor on sustained (10 min) contraction by PAR2-AP: inhibitor 10 min (U73122 10 µM, ML-9 10 µM, bisindolylmaleimide 1 µM, Y27632 1 µM), then PAR2-AP 1 µM 10 min
Rho kinase = Rho kinase activity (immunokinase assay), PAR2-AP-stimulated or basal; assay type: cell-based, rabbit; conditions: for basal Rho kinase activity with inhibitor alone / effect of inhibitor on PAR2-AP-induced Rho kinase activity: IKK IV 10 µM; for basal Rho kinase activity with inhibitor alone: MG-132 10 µM or myristoylated PKI 1 µM alone, basal 3125±502 cpm/mg protein, n = four; for effect of inhibitor on PAR2-AP-induced Rho kinase activity: MG-132 10 µM or myristoylated PKI 1 µM, PAR2-AP 1 µM 10 min, freshly dispersed cells, P<0.01
PAR2 [2] = target: T1, PAR2 (Oryctolagus cuniculus, UniProt G1SHU9); assay type: cell-based, rabbit
T1 construct: Freshly dispersed muscle cells labelled with myo-2-[^3H]inositol were incubated with different concentrations of PAR2-AP for 60 s; endogenous in cells; host or cells: freshly dispersed and primary cultured rabbit gastric smooth muscle cells
T1 sequence (G1SHU9 25-397): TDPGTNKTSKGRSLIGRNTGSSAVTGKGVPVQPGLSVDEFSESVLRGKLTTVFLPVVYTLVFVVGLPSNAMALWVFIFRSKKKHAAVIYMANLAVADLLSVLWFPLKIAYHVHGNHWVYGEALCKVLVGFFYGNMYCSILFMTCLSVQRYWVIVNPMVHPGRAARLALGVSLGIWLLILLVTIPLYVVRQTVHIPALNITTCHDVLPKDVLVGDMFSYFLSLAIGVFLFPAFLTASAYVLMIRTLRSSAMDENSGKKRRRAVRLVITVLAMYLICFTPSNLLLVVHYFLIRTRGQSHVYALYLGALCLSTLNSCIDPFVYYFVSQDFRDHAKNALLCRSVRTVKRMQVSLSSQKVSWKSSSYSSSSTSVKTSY

adenylyl cyclase = test: Forskolin-stimulated cAMP formation (adenylyl cyclase activity); assay type: cell-based, rabbit; conditions: forskolin 10 µM, 10 min, 100 µM isobutyl methyl xanthine; basal 2.8±0.5 pmol/mg protein; n = 4
Procedure: Adenylyl cyclase activity was measured by the formation of cAMP in response to agonists by radioimmunoassay using [^125I]cAMP [18], [21]. One ml (3×10^6 cells/ml) of cell suspension was treated for 60 s with forskolin (10 µM) in the presence of 100 µM isobutylmethyl xanthine, either alone or in combination with PAR2-AP (1 µM). The reaction was terminated with cold 6% trichloroacetic acid (v/v) and vortexed vigorously. After centrifugation, the supernatants were extracted three times with water-saturated diethyl ether to remove the tricholoroacetic acid and the samples were then lyophilized and frozen at –20°C. The samples were reconstituted for radioimmunoassay in 50 µl of 50 mM sodium acetate (pH 6.2) and acetylated with triethylamine/acetic anhydride (2∶1 v/v) for 30 min. […] The results are expressed as pmol of cAMP/mg protein.
Cyclic AMP formation was measured in freshly dispersed muscle cells in the presence of 100 µM isobutylmethylxanthine. Muscle cells were treated with PAR2-AP (1 µM) alone, forskolin (FSK, 10 µM) alone or forskolin plus PAR2-AP (1 µM) for 60 s and cAMP was measured by radioimmunoassay. In some experiments cells were treated with pertussis toxin (PTx, 200 ng/ml) for 60 min, and then treated with forskolin (10 µM) and PAR2-AP (1 µM) for 60 s. Results are expressed as pmol/mg protein.

PAR2 [3] = target: T1, PAR2; test: PAR2 expression (western blot); assay type: cell-based, rabbit; conditions: transfection with PAR2-specific siRNA for 48 h, cultured cells
[4] = tested on: NF-kB/PKA catalytic subunit complex; test: Association of PKA catalytic subunit with NF-kB (co-immunoprecipitation); assay type: cell-based, rabbit; conditions: cells transfected with PAR2-specific siRNA, PAR2-AP 10 min
[5] = target: Protease-activated receptor 2 (PAR2) (rabbit (endogenous in gastric smooth muscle cells))
[6] = inhibitor 10 min (U73122 10 µM, ML-9 10 µM, bisindolylmaleimide 1 µM, Y27632 1 µM) or PTx 200 ng/ml 60 min, then PAR2-AP 1 µM 30 s

NCCc1c[nH]c2ccc(O)cc12 [5-hydroxytryptamine]
contraction (decrease in cell length), comparator agonists [1]: 30±4%

NC(=O)Nc1sc(-c2ccc(F)cc2)cc1C(N)=O [IKK IV]
basal Rho kinase activity with inhibitor alone (Rho kinase; no effect): 3021±486 cpm/mg protein
effect of inhibitor on PAR2-AP-induced Rho kinase activity (Rho kinase): significantly augmented

CC(C)C[C@@H](C=O)NC(=O)[C@H](CC(C)C)NC(=O)[C@H](CC(C)C)NC(=O)OCc1ccccc1 [MG-132] (Cbz-Leu-Leu-Leu-aldehyde)
basal Rho kinase activity with inhibitor alone (Rho kinase; no effect): 2859±602 cpm/mg protein
effect of inhibitor on PAR2-AP-induced Rho kinase activity (Rho kinase): significantly augmented

O=S(=O)(c1cccc2c(Cl)cccc12)N1CCCNCC1 [ML-9]
effect of inhibitor on initial (30 s) contraction by PAR2-AP [1, 6]: abolished
effect of inhibitor on sustained (10 min) contraction by PAR2-AP [1]: not

COc1ccc2c(c1)CC[C@@H]1[C@@H]2CC[C@]2(C)[C@@H](NCCCCCCN3C(=O)C=CC3=O)CC[C@@H]12 [U73122]
inhibition of PAR2-AP-stimulated PI hydrolysis by U73122 (PAR2 [2]; U73122 10 µM 10 min, then PAR2-AP 1 µM 60 s, freshly dispersed cells): abolished
PI hydrolysis with inhibitor alone (PAR2 [2]; no PAR2-AP, U73122 10 µM 10 min or PTx 200 ng/ml 60 min, basal 520±66 cpm/mg protein, no effect on basal): 485±86 cpm/mg protein
effect of inhibitor on initial (30 s) contraction by PAR2-AP [1, 6]: abolished
effect of inhibitor on sustained (10 min) contraction by PAR2-AP [1]: not

C[C@@H](N)[C@H]1CC[C@H](C(=O)Nc2ccncc2)CC1 [Y27632]
basal Rho kinase activity with Y27632 alone (Rho kinase; Y27632 1 µM alone, basal 3363±587 cpm/mg protein, no effect): 3025±425 cpm/mg protein
effect of inhibitor on initial (30 s) contraction by PAR2-AP [1, 6]: not affected
effect of inhibitor on sustained (10 min) contraction by PAR2-AP [1]: preferentially blocked

CC(=O)OCC[N+](C)(C)C [acetylcholine]
contraction (decrease in cell length), comparator agonists [1]: 31±3%

C=C[C@@]1(C)CC(=O)[C@]2(O)[C@@]3(C)[C@@H](O)CCC(C)(C)[C@@H]3[C@H](O)[C@H](OC(C)=O)[C@@]2(C)O1 [forskolin]
cAMP formation above basal level (adenylyl cyclase): 22.1±1.86 pmol/mg protein

PAR2 siRNA: PAR-2 (ID#s453494): sense: 5′ CCUCCUCUCUGUCAUCUGGTT 3′, antisense: 5′ CCAGAUGACAGAGAGGAGGTC3′ (chemistry not given here)
inhibition of PAR2-AP-stimulated PI hydrolysis by PAR2 siRNA (PAR2 [2]; cultured cells transfected with PAR2 siRNA, PAR2-AP 1 µM 60 s, p<0.001, n = four): 83±6%
expression of PAR2 (PAR2 [3]): greatly suppressed the expression of PAR2
effect of PAR2 siRNA on PAR2-AP-induced NF-kB and PKA catalytic subunit dissociation [4]: blocked

bisindolylmaleimide
effect of inhibitor on initial (30 s) contraction by PAR2-AP [1]: not affected
effect of inhibitor on sustained (10 min) contraction by PAR2-AP [1]: not

cholecystokinin
contraction (decrease in cell length), comparator agonists [1]: 29±2%

myristoylated PKI: membrane-permeable specific PKA inhibitory peptide, myristoylated PKI 14-22 amide (Myristoyl-SGRTGRRNA-NH2; SMILES CCCCCCCCCCCCCC(=O)N[C@@H](CO)C(=O)NCC(=O)N[C@@H](CCCNC(=N)N)C(=O)N[C@H](C(=O)NCC(=O)N[C@@H](CCCNC(=N)N)C(=O)N[C@@H](CCCNC(=N)N)C(=O)N[C@@H](CC(N)=O)C(=O)N[C@@H](C)C(N)=O)[C@@H](C)O; UniProt P61925 14-22, looked up, fragment)
basal Rho kinase activity with inhibitor alone (Rho kinase; no effect): 3254±574 cpm/mg protein
effect of inhibitor on PAR2-AP-induced Rho kinase activity (Rho kinase): significantly augmented

trypsin
PI hydrolysis above basal levels, trypsin (PAR2 [2]; trypsin 1 µM, basal 439±68 cpm/mg protein): 2653±302 cpm/mg protein

SLIGRL [PAR2-activating peptide (PAR2-AP, SLIGRL)]
stimulation of PI hydrolysis in freshly dispersed rabbit gastric smooth muscle cells, concentration-dependent (EC50) [5]: 2 nM
